The values that follow come from ChEMBL document CHEMBL1201862, “PubChem BioAssay data set” (2004).

Some test systems named below: M14; NCI-H522; SF-295; IGROV-1; HT-29; SW-620; NCI-H226; OVCAR-8; SK-MEL-5; OVCAR-5; HCT-116; RXF 393; A498; CCRF-CEM; UACC-62; COLO 205; SNB-75; HCT-15; SF-539; 786-0.
What all share (experiment): NCI anticancer screen, dose series, 48 h

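Where inhibition never reached the appropriate level, the endpoint shown equals the highest concentration tested. Otherwise, values were interpolated linearly from a five-concentration, 48-hour dose response in 96-well plates. Here, GI50 denotes the concentration required for 50% inhibition of growth.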 The source made the active and inactive calls. No stated cut-off is given here; in the data, active = GI50 up to about 1.1 µM and inactive = higher.

As for `O=C(Nc1ccc(Cl)c(Cl)c1)C(=O)C(C(=O)c1ccccc1F)C1OC(=O)c2ccccc21` (stereo unspecified), the GI50 with M14 was 16.4 µM (inactive); in the assay on NCI-H522 it was 12.6 µM (inactive); in the assay with SF-295 it was 37.5 µM (inactive); in the assay on IGROV-1, 27.4 µM (inactive); in the assay with HT-29, 34.4 µM (inactive); in the assay on SW-620 it was 23.9 µM (inactive). In addition, the GI50 is 17.9 µM (inactive) in the assay with NCI-H226; 15.2 µM (inactive) in the assay on OVCAR-8; 15.9 µM (inactive) in the assay with SK-MEL-5; 49.1 µM (inactive) in the assay on OVCAR-5; 16.8 µM (inactive) in the assay with HCT-116; 20.7 µM (inactive) in the assay with RXF 393. Also, the GI50 is 37.8 µM (inactive) in the assay on A498; 13.8 µM (inactive) with CCRF-CEM; 14.8 µM (inactive) in the assay with UACC-62; 16.1 µM (inactive) in the assay on COLO 205; 18.6 µM (inactive) in the assay on SNB-75; 13.7 µM in the assay with HCT-15. For the same compound, the GI50 with SF-539 was 11.1 µM (inactive).
As to `CC1(Br)S(=O)(=O)OCCOS1(=O)=O`, the GI50 in the assay on M14, in the assay with NCI-H522, in the assay on SF-295, in the assay on IGROV-1, with HT-29 and with SW-620 was > 100 µM (inactive) each time. Besides, the GI50 with NCI-H226, in the assay on OVCAR-8, in the assay on SK-MEL-5, with OVCAR-5, in the assay with HCT-116 and in the assay with RXF 393 was > 100 µM (inactive) throughout. Also, the GI50 with 786-0, in the assay on A498, in the assay with CCRF-CEM, with UACC-62, in the assay on COLO 205 and in the assay with SNB-75 was > 100 µM (inactive) throughout. Besides, the figures for the GI50 in the assay on HCT-15 and in the assay with SF-539 were above 100 µM and > 100 µM (inactive), respectively.
`O=C1C(Cl)C2(CC(/C=C/c3cccs3)=NN2c2cccc(S(=O)(=O)O)c2)N1c1nc2ccccc2s1` (stereo unspecified): the GI50 is 99.3 µM (inactive) in the assay with M14; 18.2 µM (inactive) with NCI-H522; 21.1 µM (inactive) in the assay with IGROV-1; 73.5 µM (inactive) with HT-29; > 100 µM (inactive) in the assay on SW-620; 27.9 µM (inactive) in the assay on NCI-H226. Also, the GI50 was 41.7 µM (inactive) in the assay with OVCAR-8; 16.9 µM (inactive) in the assay with SK-MEL-5; > 100 µM (inactive) in the assay with OVCAR-5; > 100 µM (inactive) in the assay with HCT-116; > 100 µM (inactive) with RXF 393; 94.6 µM (inactive) in the assay with 786-0. The GI50 was 76.2 µM (inactive) with A498; 20.1 µM (inactive) in the assay with CCRF-CEM; 59.6 µM (inactive) in the assay with UACC-62; > 100 µM (inactive) in the assay on COLO 205; 49.9 µM (inactive) in the assay on SNB-75; 75.9 µM with HCT-15. The GI50 in the assay on SF-539 is > 100 µM (inactive).
As for `NCC(Cl)C(O)c1c[nH]c(N)n1` (stereo unspecified), the GI50 in the assay with NCI-H522 was 1.93 µM (inactive); with SF-295, 4.31 µM (inactive); in the assay with IGROV-1, 0.245 µM (active); in the assay with HT-29 it was 0.454 µM (active); with SW-620, 0.37 µM (active); with NCI-H226, 2.15 µM (inactive). Moreover, the GI50 was 0.546 µM (active) in the assay on OVCAR-8; 7.33 µM (inactive) in the assay on SK-MEL-5; 2.01 µM (inactive) in the assay with OVCAR-5; 0.392 µM (active) with HCT-116; 1.19 µM (inactive) with RXF 393; 0.147 µM (active) in the assay on A498. Moreover, the GI50 was 1.58 µM (inactive) with CCRF-CEM; 3.01 µM (inactive) in the assay with UACC-62; 0.306 µM (active) in the assay on COLO 205; 1.84 µM (inactive) with SNB-75; 3.48 µM with HCT-15; 0.473 µM (active) with SF-539.
Turning to `O=C(NC(Cc1ccc(Cl)cc1)C(=O)O)c1ccc(I)cc1` (stereo unspecified), the GI50 was > 83.2 µM (inactive) with NCI-H522; > 100 µM (inactive) in the assay with SF-295; > 100 µM (inactive) with IGROV-1; > 100 µM (inactive) in the assay with HT-29; > 100 µM (inactive) in the assay on SW-620; > 100 µM (inactive) in the assay on NCI-H226. Further, the GI50 with OVCAR-8, in the assay on SK-MEL-5, in the assay on OVCAR-5, in the assay with HCT-116, with RXF 393 and with A498 was > 100 µM (inactive) in each case. For the same compound, the GI50 with CCRF-CEM was > 100 µM (inactive); in the assay with UACC-62, 64.9 µM (inactive); with COLO 205, > 100 µM (inactive); in the assay on SNB-75 it was 86.3 µM (inactive); in the assay with HCT-15, above 100 µM; in the assay on SF-539, > 100 µM (inactive).
As to `CC1CC(c2ccccc2)=Nc2ccccc2S1` (stereo unspecified), the GI50 in the assay with M14 was > 100 µM (inactive); in the assay with NCI-H522, 41.9 µM (inactive); with SF-295, > 100 µM (inactive); with IGROV-1, > 100 µM (inactive); in the assay with HT-29, > 100 µM (inactive); in the assay with SW-620 it was > 100 µM (inactive). Moreover, the GI50 in the assay with NCI-H226, with OVCAR-8, with SK-MEL-5, in the assay on OVCAR-5, with HCT-116 and with RXF 393 was > 100 µM (inactive) each time. The GI50 was > 100 µM (inactive) with A498; 34.7 µM (inactive) in the assay with CCRF-CEM; > 100 µM (inactive) in the assay on UACC-62; > 100 µM (inactive) in the assay on COLO 205; > 100 µM (inactive) in the assay on SNB-75; above 100 µM in the assay on HCT-15. For the same compound, in the assay with SF-539, the GI50 is > 100 µM (inactive).
`CCCCCCCc1cscc1-c1cscc1Br`: the GI50 with M14 was 31.9 µM (inactive); with NCI-H522 it was 21.4 µM (inactive); in the assay on SF-295 it was 26 µM (inactive); with IGROV-1 it was 59.7 µM (inactive); in the assay with SW-620 it was 42.8 µM (inactive); in the assay on NCI-H226, 65.2 µM (inactive). The GI50 was 52 µM (inactive) in the assay with OVCAR-8; 28.4 µM (inactive) in the assay with SK-MEL-5; 39.3 µM (inactive) in the assay with OVCAR-5; 32.7 µM (inactive) with HCT-116; 27 µM (inactive) with RXF 393; 57 µM (inactive) in the assay with 786-0. Besides, the GI50 with A498 is 86.7 µM (inactive); in the assay with CCRF-CEM, 18.2 µM (inactive); in the assay on UACC-62, 70 µM (inactive); in the assay with COLO 205, 18 µM (inactive); in the assay with SNB-75, 25.8 µM (inactive); with HCT-15, 36.1 µM. Further, the GI50 in the assay with SF-539 was > 100 µM (inactive).
Consider `C=CCNC(=O)N(CCC)CCCC(NC(C)=O)C(=O)NCc1ccccc1` (stereo unspecified), for which the GI50 with M14, in the assay on NCI-H522, in the assay with SF-295, in the assay with IGROV-1, with HT-29 and in the assay on SW-620 was > 100 µM (inactive) in each case. For the same compound, the GI50 with NCI-H226 was 79.1 µM (inactive); in the assay on OVCAR-8 it was > 100 µM (inactive); in the assay on SK-MEL-5, > 100 µM (inactive); in the assay on OVCAR-5, > 100 µM (inactive); with RXF 393, > 100 µM (inactive); in the assay with 786-0, > 100 µM (inactive). The GI50 with A498 was > 100 µM (inactive); in the assay with CCRF-CEM it was > 100 µM (inactive); with UACC-62, > 100 µM (inactive); with COLO 205, > 100 µM (inactive); in the assay with SNB-75 it was > 100 µM (inactive); in the assay on HCT-15 it was above 100 µM. In addition, the GI50 in the assay with SF-539 was > 100 µM (inactive).
